Data: PMC9048745, “Physicochemical investigation of a novel curcumin diethyl γ-aminobutyrate, a carbamate ester prodrug of curcumin with enhanced anti-neuroinflammatory activity” (PLoS ONE, 2022)
Converted amounts (≈) assume the structure as drawn. Read-outs that look alike come from different tables or passages of the source.

Tests used:
[1] = system: NO production in LPS-stimulated BV-2 microglial cells; assay: Nitric oxide assay (Griess reagent); format: cell-based, murine; conditions: 10 μM, 12 h pre-incubation, then 1 μg/mL LPS 24 h; compared with curcumin
Procedure: (§1) BV-2 microglial cells were plated in a 24-well plate at a density of 2 × 10^5 per well for 24 h. The cells were pre-incubated for 12 h with curcumin (10 μM), CUR-2GE (10 μM), medium (DMEM), or a vehicle (0.5% DMSO). The cells were then induced with 1 μg/mL LPS for 24 h. The culture medium samples were collected and analyzed for nitric oxide (NO) and cytokines (TNF- and IL-6) using NO and enzyme-linked immunoassay (ELISA) assays, respectively.
Nitric oxide (NO) production was determined by measuring nitrite, the NO metabolite, using Griess reagent. Briefly, the culture medium (100 μL) was added with 1% sulfanilamide (50 μL) and incubated for 5 min. Then, a solution of 0.1% N-(1-naphthyl)ethylenediamine dihydrochloride (50 μL) was added and incubated for 5 min. The absorbance was measured at 520 nm using the microplate reader, and the nitrite concentration was calculated against a calibration curve using NaNO₂ as a standard.

[2] = system: TNF-α release in LPS-stimulated BV-2 microglial cells; assay: TNF-α ELISA; format: cell-based, murine; conditions: 10 μM, 12 h pre-incubation, then 1 μg/mL LPS 24 h; compared with curcumin
Procedure: as §1
Quantification of TNF-α and IL-6 was performed using commercially available ELISA kits according to the manufacturer’s protocol (BioLegend, San Diego, CA, USA). The absorbance was measured at 450 nm using the microplate reader, and the amount of TNF-α and IL-6 was determined against their corresponding standard curves of TNF-α and IL-6.

[3] = Solubility in water, buffer pH 4.5 and ethanol (UPLC); format: physicochemical; conditions: for solubility at 1 h: thermodynamic from solid
Procedure: An excess amount of CUR-2GE (2 mg) was added to 2 mL of three solvents, water, phosphate buffer pH 4.5 and ethanol. The samples were sonicated at 25°C for 1 h and then placed on an orbital shaker at 100 rpm at 25°C for 1 h. The obtained mixture was then centrifuged at 25°C at 14,000 rpm for 10 min [37, 38]. The supernatant was analyzed using UPLC and the solubility of CUR-2GE in each medium was determined. Experiments were performed in triplicate. The solubility category was classified according to USP [39]. The percentage of CUR-2GE in the undissociated form at various pH values was calculated based on the Henderson-Hasselbalch equation [40] (see S1 Appendix).
S1 Appendix. Experimental procedures
The solubility category was classified according to USP [1] as very soluble (>1000 mg/mL), freely soluble (100-1000 mg/mL), soluble (33-100 mg/mL), sparingly soluble (10-33 mg/mL), slightly soluble (1-10 mg/mL), very slightly soluble (0.1-1 mg/mL) and practically […]
The percentage of CUR-2GE in the undissociated form at various pH values were calculated based on Henderson-Hasselbalch using Eq. 1:
%Undissociated form = 100 - antilog (pH-pKa) x 100 (1)
Where pH; pH value of the medium for solubilization, pKa; negative logarithm of the dissociation constant (Ka) of CUR-2GE with computed using the Marvin (Product version: 21.8.0) of ChemAxon (Budapest, Hungary) (http://www.chemaxon.com) accessed on June 2021. […]

[4] = Chemical stability in aqueous buffer solutions at 37°C; format: physicochemical; conditions: for half-life at 10 μg/mL: read-out: t1/2, hydrolysis (converted)
Procedure: Chemical stability of CUR-2GE was performed at 37°C in aqueous buffer solutions at pH 1.2, 4.5, 6.8 and 7.4. CUR-2GE (1 mg) was dissolved in DMSO (1 mL) and adjusted with the diluent in a 5-mL volumetric flask to obtain a stock solution at 200 μg/mL. The stock solution was diluted with a pre-incubated buffer in a vial at 37°C at an initial concentration of 10 μg/mL [26]. Each sample was incubated at 37°C at appropriate intervals and analyzed using UPLC. The experiment was performed in triplicate. The hydrolytic products were also identified by comparing chromatographic retention times to curcumin and CUR-1GE. Kinetic profiles of CUR-2GE and its hydrolytic products, including curcumin and CUR-1GE, were determined by plotting percent peak area vs. incubation time. The linear slope of the natural logarithm of concentrations against time was used to calculate the degradation rate (k) and half-life (t1/2) using the linear pseudo-first-order model (see S1 Appendix). […]
The linear slopes of the natural logarithm of a concentration against time were used to calculate the degradation rate (k) for the pseudo-first-order (Eq. 5).
Ln [At] = Ln [A0] - kt (5)
Where A0 is the CUR-2GE concentration at time 0, At is the concentration of CUR-2GE at time t, and k is the degradation rate constant of CUR-2GE.
The half-lives (t1/2) of CUR-2GE were calculated by Eq. 6: […]

BV-2 microglial cells = assay: Cytotoxicity (MTT assay); format: cell-based, murine; conditions: BV-2 cells, 24 h
Procedure: BV-2 microglial cells were cultured in DMEM supplemented with 10% fetal bovine serum, 2 mM L-glutamine, 1% penicillin/streptomycin (100 units/mL penicillin and 100 μg/mL streptomycin) at 37°C in 5% CO2. BV-2 microglial cells were plated in a 24-well plate at a density of 2 × 10^5 cells/well for 24 h. Various concentrations at 0, 1.25, 2.5, 5, 10, or 20 μM of curcumin or CUR-2GE were determined for a non-toxic concentration. After 24 h, cell viability was assessed by an MTT assay. The media was removed and replaced with an MTT solution in PBS (0.5 mg/mL). After 3-h incubation, the MTT solution was discarded, and formazan crystals formed after the reaction was dissolved in DMSO. The absorbance was then read at 540 nm using a microplate reader (CLARIOstar®, BMG Labtech, Ortenberg, Germany). The percentage of cell viability was expressed relative to the control cells. In addition, the cell viability of BV-2 microglial cells treated with LPS and a combination of LPS and the test compounds was also determined.

[5] = 25°C, <LOQ refers to less than 0.05 μg/mL

CCOC(=O)CCCNC(=O)Oc1ccc(/C=C/C(=O)/C=C(O)/C=C/c2ccc(OC(=O)NCCCC(=O)OCC)c(OC)c2)cc1OC [CUR-2GE, Curcumin diethyl γ-aminobutyrate]
inhibition of NO production [1]: to a greater extent than curcumin
inhibition of TNF-α release [2]: to a greater extent than curcumin
Solubility, buffer pH 4.5 [3, 5]: <LOQ
Solubility, water [3, 5]: <LOQ
solubility at 1 h ([3]; ethanol, organic solvent or mixture, 25°C, read-out: Solubility, ethanol): 17.9 ± 1.76 µg/mL (≈ 26.1 µM)
USP solubility classification ([3]; in water, buffer pH 4.5 and ethanol, practically insoluble = <0.1 mg/mL): practically insoluble
solubility at 1 h ([3]; phosphate buffer pH 4.5, pH 4.5, aqueous buffer, 25°C, <LOQ refers to less than 0.05 μg/mL, read-out: Solubility, buffer pH 4.5): < 0.05 µg/mL
solubility at 1 h ([3]; water, 25°C, <LOQ refers to less than 0.05 μg/mL, read-out: Solubility, water): < 0.05 µg/mL
hydrolysis rate in buffer pH 7.4 higher than pH 1.2 ([4]; 37°C): 262 folds
hydrolysis rate in buffer pH 7.4 higher than pH 4.5 ([4]; 37°C): 778 folds
hydrolysis rate in buffer pH 7.4 higher than pH 6.8 ([4]; 37°C): 1.94 folds
half-life at 10 μg/mL ([4]; aqueous buffer pH 1.2, buffer pH 1.2, 37°C): 11.9 ± 0.14 h
half-life at 10 μg/mL ([4]; aqueous buffer pH 4.5, buffer pH 4.5, 37°C): 36.4 ± 8.53 h
half-life at 10 μg/mL ([4]; aqueous buffer pH 6.8, buffer pH 6.8, 37°C): 0.09 ± 0.01 h
half-life at 10 μg/mL ([4]; aqueous buffer pH 7.4, buffer pH 7.4, 37°C): 0.045 ± 0.002 h
k, pseudo-first-order hydrolysis ([4]; buffer pH 1.2, 37°C): 0.0583 ± 0.0007 h⁻¹
k, pseudo-first-order hydrolysis ([4]; buffer pH 4.5, 37°C): 0.020 ± 0.004 h⁻¹
k, pseudo-first-order hydrolysis ([4]; buffer pH 6.8, 37°C): 7.89 ± 0.54 h⁻¹
k, pseudo-first-order hydrolysis ([4]; buffer pH 7.4, 37°C): 15.31 ± 0.70 h⁻¹
non-toxic concentrations (no cytotoxicity) (BV-2 microglial cells): ≤ 10 µM
